In patent US8629180B2, “Antiseptic agent composition” (Taiyo Corporation, priority 2009, dated 2014):

Legend:
[1] = tested on: S. aureus; assay: Antiseptic and bactericidal effect found by the applicant (background); format: cell-based; conditions: background statement, the present applicant has found
[2] = tested on: E. coli; assay: as above; format: cell-based; conditions: background statement, the present applicant has found

Substance: glycerin ricinoleic acid monoester
- antiseptic and bactericidal effects on S. aureus (in words) [1]: exerts antiseptic and bactericidal effects
- antiseptic and bactericidal effect on E. coli (in words) [2]: almost no antiseptic and bactericidal effect
